Assay results as given in patent US20230348369A1 (Cytokinetics, Inc., priority 2020, published 2023).
Like-named read-outs stand apart in the source and are kept apart here.

Legend:
human NAMPT = human NAMPT (Homo sapiens, UniProt P43490); assay: Human recombinant enzyme assay (NMN fluorescence biochemical assay, activation of NAMPT)
Outline: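 Activation of recombinant human NAMPT (6 nM) with 2.5 mM ATP, 20 μM PRPP and 150 μM nicotinamide in 50 mM HEPES pH 7.2, 1 mM DTT, 1 mM CHAPS, 50 mM NaCl, 100 mM MgCl2; 60 min, ambient temperature. NMN formed was derivatized with acetophenone/KOH/formic acid, fluorescence read at 355/460 nm after 40 min.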

endogenous NAMPT = biological target: T1, endogenous NAMPT (Homo sapiens, UniProt P43490); assay: Cellular NAD+ modulation assay in neuroblastoma SH-SY5Y cells; assay type: cell-based
T1 construct: stimulate the endogenous NAMPT in a native cellular environment; endogenous in cells; host or cells: SH-SY5Y neuroblastoma cells
T1 sequence (P43490 whole entry): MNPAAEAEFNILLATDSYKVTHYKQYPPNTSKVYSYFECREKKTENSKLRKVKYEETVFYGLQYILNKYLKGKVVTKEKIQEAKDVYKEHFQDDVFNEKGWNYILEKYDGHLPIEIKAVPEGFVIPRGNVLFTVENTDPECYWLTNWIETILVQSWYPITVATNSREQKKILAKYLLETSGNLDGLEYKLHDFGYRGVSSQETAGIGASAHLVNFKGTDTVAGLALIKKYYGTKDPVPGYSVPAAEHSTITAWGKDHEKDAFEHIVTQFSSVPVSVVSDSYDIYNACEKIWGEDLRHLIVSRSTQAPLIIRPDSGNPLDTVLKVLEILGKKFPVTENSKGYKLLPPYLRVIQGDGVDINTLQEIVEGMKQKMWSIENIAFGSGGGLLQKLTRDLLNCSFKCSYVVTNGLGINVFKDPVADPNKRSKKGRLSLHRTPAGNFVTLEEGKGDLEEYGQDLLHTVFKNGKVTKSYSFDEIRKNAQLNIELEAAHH
Method: The compounds described herein were also assayed for their ability to stimulate the endogenous NAMPT in a native cellular environment in the cellular NAD+ modulation assay, which measures the ability of the compound to modulate cellular NAD levels. Increased levels of NAD are expected by compounds that permeate the cells and activate the catalytic activity of the endogenous NAMPT.
Neuroblastoma SH-SY5Y cells were grown in 1:1 mixture of Eagle's Minimum Essential Medium and F12 Medium, along with 10% fetal bovine serum, in a humidified incubator with an atmosphere of 95% air and 5% CO2 at 37° C. The assays were initiated by plating 20 μL of SH-SY5Y cells in culture medium with 0.1% fetal bovine serum, at a density of 5000 cells per well to a 384-well Corning™ BioCoat™ Poly-D-Lysine Multiwell Plates. The plates were incubated in the 37° C. incubators for a period of 5 hours. Compounds in DMSO were added to the plates in a volume of 120 nL using the Labcyte Echo Liquid Handlers. […] The plates are then incubated for 40 hours. 30 μL of a readout-solution containing 0.2 U/mL Diaphorase enzyme, 40 uM resazurin, 10 uM FMN, 0.8 U/mL Alcohol dehydrogenase, 3% ethanol, 0.4 mg/mL bovine serum albumin, 0.2% Triton X-100 in 100 mM Tris-HCl, 30 mM EDTA, pH 8.4. The plates were read for fluorescence (Excitation/Emission=540 nm/590 nm) using an EnVision plate reader after 60 mins of incubation at ambient temperature.

[1] = Table A, human recombinant NAMPT, NMN formation, 60 min
[2] = Table A, human recombinant NAMPT, NMN formation, 60 min, read-out: EC50 Human
[3] = Table B, SH-SY5Y cells, cellular NAD levels, doxorubicin, 40 hours
[4] = Table B, SH-SY5Y cells, cellular NAD levels, doxorubicin, 40 hours, read-out: EC50

human NAMPT, sequence (P43490 whole entry): as above

Compound	AC1.4 Human (human NAMPT; [1])	EC50 (human NAMPT; [2])	AC0.3 (endogenous NAMPT; [3])	EC50 (endogenous NAMPT; [4])	EC50 (human NAMPT)	EC50 (endogenous NAMPT)
CC(C)(O)CN1CCN(C(=O)[C@H]2C[C@@]3(C[C@H](NC(=O)NCc4ccc(Cl)cc4)C3)C2)CC1 (single isomer, unassigned) [Compound 187]	–	–	–	–	0.6 µM	0.2 µM
COc1ccc(CNC(=O)NC2CC3(C2)CC(C(=O)N(C)C2CCOC2)C3)cc1 (stereo in doubt) [Compound 79, (R)-6-(3-(4-methoxybenzyl)ureido)-N-methyl-N-(tetrahydrofuran-3-yl)spiro[3.3]heptane-2-carboxamide]	1.4 µM	39.8 µM	5.8 µM	5.8 µM	–	–
COc1ccc(CNC(=O)NC2CC3(C2)CC(NC(=O)OC(C)(C)C)C3)cc1 (centres unmarked) [Compound 7, tert-butyl (6-(3-(4-methoxybenzyl)ureido)spiro[3.3]heptan-2-yl)carbamate]	5.1 µM	26.3 µM	2.4 µM	4.7 µM	–	–
O=C(NCCCCC1CCN(C(=O)c2ccccc2)CC1)NCc1ccc(Cl)cc1 [Compound 16, 1-(4-(1-benzoylpiperidin-4-yl)butyl)-3-(4-chlorobenzyl)urea]	0.1 µM	–	0.1 µM	–	0.3 µM	0.1 µM
CC(C)(C)OC(=O)N1CCC2(CC1)CC2CNC(=O)NCc1ccc(Cl)cc1 (centres unmarked) [Compound 27, tert-butyl 1-((3-(4-chlorobenzyl)ureido)methyl)-6-azaspiro[2.5]octane-6-carboxylate]	–	–	–	–	21.5 µM	5.8 µM
COc1ccc(CNC(=O)NC2CC3(CC(Cc4cccc(C)c4)C3)C2)cc1 (centres unmarked) [Compound 335, 1-(4-Methoxybenzyl)-3-(6-(3-methylbenzyl)spiro[3.3]heptan-2-yl)urea]	1.1 µM	2.2 µM	–	–	–	–
COc1ccc(CNC(=O)NC2CC3(CC(Cc4ccc(C)nc4)C3)C2)cc1 (centres unmarked) [Compound 337, 1-(4-methoxybenzyl)-3-(6-((6-methylpyridin-3-yl)methyl)spiro[3.3]heptan-2-yl)urea]	1.0 µM	26.1 µM	–	–	–	–
Cc1ccc(C(C)(O)C2CC3(CC(NC(=O)NCc4ccc(Cl)cc4)C3)C2)cn1 (centres unmarked) [Compound 338, 1-(4-chlorobenzyl)-3-(6-(1-hydroxy-1-(6-methylpyridin-3-yl)ethyl)spiro[3.3]heptan-2-yl)urea]	6.4 µM	10.3 µM	–	–	–	–
O=C(NCc1ccc(Cl)cc1)NC1CC2(CC(Cc3ncccn3)C2)C1 (centres unmarked) [Compound 340, 1-(4-chlorobenzyl)-3-(6-(pyrimidin-2-ylmethyl)spiro[3.3]heptan-2-yl)urea]	3.7 µM	–	–	–	5.6 µM	–
O=C(NCc1ccc(Cl)cc1)NC1CC2(C1)CC(Oc1ccncc1)C2 (centres unmarked) [Compound 341, 1-(4-chlorobenzyl)-3-(6-(pyridin-4-yloxy)spiro[3.3]heptan-2-yl)urea]	3.9 µM	2 µM	–	–	–	–
CS(=O)(=O)C1CC2(CC(NC(=O)NCc3ccc(Cl)cc3)C2)C1 (centres unmarked) [Compound 342, 1-(4-chlorobenzyl)-3-(6-(methylsulfonyl)spiro[3.3]heptan-2-yl)urea]	33.1 µM	56.1 µM	–	–	–	–
O=C(NCc1ccc(Cl)cc1)NC1CC2(C1)CC(Oc1cccnc1)C2 (centres unmarked) [Compound 343, 1-(4-chlorobenzyl)-3-(6-(pyridin-3-yloxy)spiro[3.3]heptan-2-yl)urea]	3.0 µM	–	–	–	5.6 µM	–
COc1ccc(CNC(=O)NC2CC3(C2)CC(Oc2cccnc2)C3)cc1 (centres unmarked) [Compound 344, 1-(4-methoxybenzyl)-3-(6-(pyridin-3-yloxy)spiro[3.3]heptan-2-yl)urea]	3.1 µM	34.9 µM	–	–	–	–
Cc1ccc(CC2CC3(C2)CC(NC(=O)NCc2ccc(Cl)cc2)C3)cn1 (centres unmarked) [Compound 347, 1-(4-chlorobenzyl)-3-(6-((6-methylpyridin-3-yl)methyl)spiro[3.3]heptan-2-yl)urea]	2.2 µM	2.4 µM	–	–	–	–
O=C(NCc1ccc(Cl)cc1)NC1CC2(C1)CC(OCc1ccncc1)C2 (centres unmarked) [Compound 348, 1-(4-chlorobenzyl)-3-(6-(pyridin-4-ylmethoxy)spiro[3.3]heptan-2-yl)urea]	5.0 µM	5.9 µM	–	–	–	–
COc1ccc(CNC(=O)NC2CC3(C2)CC(OCc2ccncc2)C3)cc1 (centres unmarked) [Compound 349, 1-(4-methoxybenzyl)-3-(6-(pyridin-4-ylmethoxy)spiro[3.3]heptan-2-yl)urea]	6.9 µM	40.3 µM	–	–	–	–
COc1ccc(CNC(=O)NC2CC3(C2)CC(OCc2cccnc2)C3)cc1 (centres unmarked) [Compound 351, 1-(4-methoxybenzyl)-3-(6-(pyridin-3-ylmethoxy)spiro[3.3]heptan-2-yl)urea]	4.0 µM	38.7 µM	–	–	–	–
O=C(NCc1ccc(Cl)cc1)N[C@H]1C[C@]2(CCN(C(=O)N3CCC(N4CCCCC4)CC3)C2)C1 [Compound 354, 1-((2r,4s)-6-([1,4′-bipiperidine]-1′-carbonyl)-6-azaspiro[3.4]octan-2-yl)-3-(4-chlorobenzyl)urea]	4.2 µM	–	–	–	–	–

Now from value to compound, other results behind:

AC1.4 Human (human NAMPT; [1])	EC50 (human NAMPT; [2])	AC0.3 (endogenous NAMPT; [3])	EC50 (endogenous NAMPT; [4])	Compound	EC50 (human NAMPT)	EC50 (endogenous NAMPT)
2.7 µM	35.3 µM	>20.1 µM	≥ 20.1 µM	NC(=O)c1ccc(CNC(=O)NC2CC3(C2)CC(NC(=O)c2ccccc2)C3)cc1 (centres unmarked) [Compound 14, N-(6-(3-(4-carbamoylbenzyl)ureido)spiro[3.3]heptan-2-yl)benzamide]	–	–
0.1 µM	1.8 µM	1.6 µM	1.3 µM	NC(=O)c1ccc(CNC(=O)NCCCCC2CCN(C(=O)c3ccccc3)CC2)cc1 [Compound 19, 4-((3-(4-(1-benzoylpiperidin-4-yl)butyl)ureido)methyl)benzamide]	–	–
0.2 µM	4.7 µM	0.4 µM	13.9 µM	COc1ccc(CNC(=O)NCCCCC2CCN(C(=O)c3ccccc3)CC2)cc1 [Compound 20, 1-(4-(1-benzoylpiperidin-4-yl)butyl)-3-(4-methoxybenzyl)urea]	–	–
0.1 µM	1.1 µM	0.4 µM	0.1 µM	O=C(NCCCCC1CCN(C(=O)c2ccccc2)CC1)NCc1ccc(CO)cc1 [Compound 22, 1-(4-(1-benzoylpiperidin-4-yl)butyl)-3-(4-(hydroxymethyl)benzyl)urea]	–	–
0.1 µM	1.4 µM	0.3 µM	0.3 µM	O=C(NCCCCC1CCN(C(=O)c2ccccc2)CC1)NCc1cnco1 [Compound 23, 1-(4-(1-benzoylpiperidin-4-yl)butyl)-3-(oxazol-5-ylmethyl)urea]	–	–
–	26.7 µM	–	2.2 µM	CC(C)(C)OC(=O)N1CCC2(CC1)CC2CNC(=O)NCc1ccc(CO)cc1 (centres unmarked) [Compound 29, tert-butyl 1-((3-(4-(hydroxymethyl)benzyl)ureido)methyl)-6-azaspiro[2.5]octane-6-carboxylate]	–	–
–	19.8 µM	–	8.4 µM	CC(C)(C)OC(=O)N1CCC2(CC1)CC2CNC(=O)NCc1ccc(C(N)=O)cc1 (centres unmarked) [Compound 33, tert-butyl 1-((3-(4-carbamoylbenzyl)ureido)methyl)-6-azaspiro[2.5]octane-6-carboxylate]	–	–
0.7 µM	2.1 µM	–	–	COc1ccc(CNC(=O)NC2CC3(CC(Cc4ccccc4C)C3)C2)cc1 (centres unmarked) [Compound 336, 1-(4-methoxybenzyl)-3-(6-(2-methylbenzyl)spiro[3.3]heptan-2-yl)urea]	–	–
4.6 µM	6.5 µM	–	–	O=C(NCc1ccc(Cl)cc1)NC1CC2(CC(Cn3cncn3)C2)C1 (centres unmarked) [Compound 339, 1-(6-((1H-1,2,4-triazol-1-yl)methyl)spiro[3.3]heptan-2-yl)-3-(4-chlorobenzyl)urea]	–	–
1.6 µM	0.6 µM	–	–	O=C(NCc1ccc(Cl)cc1)NC1CC2(CC(Cc3cccnc3)C2)C1 (centres unmarked) [Compound 345, 1-(4-chlorobenzyl)-3-(6-(pyridin-3-ylmethyl)spiro[3.3]heptan-2-yl)urea]	–	–
1.7 µM	6.1 µM	–	–	O=C(NCc1ccc(Cl)cc1)NC1CC2(C1)CC(OCc1cccnc1)C2 (centres unmarked) [Compound 350, 1-(4-chlorobenzyl)-3-(6-(pyridin-3-ylmethoxy)spiro[3.3]heptan-2-yl)urea]	–	–
6.0 µM	8 µM	–	–	O=C(NCc1ccc(Cl)cc1)NC1CC2(CC(CS(=O)(=O)c3ccccc3)C2)C1 (centres unmarked) [Compound 352, 1-(4-chlorobenzyl)-3-(6-((phenylsulfonyl)methyl)spiro[3.3]heptan-2-yl)urea]	–	–
5.3 µM	16.9 µM	–	–	O=C(NCc1ccc(Cl)cc1)NC1CC2(CC(CS(=O)(=O)c3cccnc3)C2)C1 (centres unmarked) [Compound 353, 1-(4-chlorobenzyl)-3-(6-((pyridin-3-ylsulfonyl)methyl)spiro[3.3]heptan-2-yl)urea]	–	–
